System: Pyricularia oryzae
Experiment: whole plant or invertebrate
Format: in vivo
Details: 120 h, read-out: efficacy

| SMILES | pest or weed control at 250 ppm |
| --- | --- |
| COCc1cccc(Nc2ncc(Cl)c(NC(C)C)n2)c1 [Example 26] | ≥ 80% |
| COCCOc1cccc(Nc2ncc(Cl)c(NC3CCC3)n2)c1 [Example 66] | ≥ 80% |
| COCc1cccc(Nc2ncc(Br)c(NC(C)C)n2)c1 [Example 70] | ≥ 80% |
| COCCOc1cccc(Nc2ncc(C(F)(F)F)c(NC3CCC3)n2)c1 [Example 71] | ≥ 80% |
| COCCOc1ccc(Nc2ncc(C(F)(F)F)c(NC3CC3)n2)cc1 [Example 82] | ≥ 80% |
| CCNc1nc(Nc2cccc(COC)c2)ncc1Cl [Example 95] | ≥ 80% |
| CCC[S+]([O-])c1cccc(Nc2ncc(Br)c(NC3CC3)n2)c1 (stereo not drawn) [Example 102] | ≥ 80% |
| CCCCSc1cccc(Nc2ncc(Br)c(NC3CC3)n2)c1 [Example 105] | ≥ 80% |
| CCCCSc1cccc(Nc2ncc(C(F)(F)F)c(NC3CC3)n2)c1 [Example 107] | ≥ 80% |
| CCC1CC1Nc1nc(Nc2cccc(COC)c2)ncc1Cl (stereo not drawn) [Example 108] | ≥ 80% |
| CCCC[S+]([O-])c1cccc(Nc2ncc(Br)c(NC3CC3)n2)c1 (stereo not drawn) [Example 126] | ≥ 80% |
| COCCCSc1cccc(Nc2ncc(Cl)c(NC3CC3)n2)c1 [Example 201] | ≥ 80% |

System: Alternaria solani
Experiment: Alternaria test (tomato) / protective
Format: in vivo
Details: 72 h, active compound concentration 100 ppm, evaluation 3 days after inoculation, read-out: efficacy
Protocol: The plants are then placed in an incubation cabinet at about 20° C. and 100% relative atmospheric humidity.

| SMILES | pest or weed control at 100 ppm |
| --- | --- |
| COCc1cccc(Nc2ncc(Cl)c(NC(C)C)n2)c1 [Example 26] | ≥ 70% |
| COCCOc1cccc(Nc2ncc(Cl)c(NC3CCC3)n2)c1 [Example 66] | ≥ 70% |

System: Rhizoctonia solani
Experiment: Rhizoctonia test (rice) / protective
Format: in vivo
Details: 96 h, active compound concentration 250 ppm, evaluation 4 days after inoculation, read-out: efficacy

| SMILES | pest or weed control at 250 ppm |
| --- | --- |
| COCc1cccc(Nc2ncc(Cl)c(NC3CCCC3)n2)c1 [Example 7] | ≥ 80% |
| COCc1cccc(Nc2ncc(Cl)c(NC(C)C)n2)c1 [Example 26] | ≥ 80% |
| COCc1cccc(Nc2ncc(Br)c(NC(C)C)n2)c1 [Example 70] | ≥ 80% |
| COCCOc1cccc(Nc2ncc(C(F)(F)F)c(NC3CCC3)n2)c1 [Example 71] | ≥ 80% |
| CCC[S+]([O-])c1cccc(Nc2ncc(Br)c(NC3CC3)n2)c1 (stereo not drawn) [Example 102] | ≥ 80% |
| CCCS(=O)(=O)c1cccc(Nc2ncc(Cl)c(NC3CCC3)n2)c1 [Example 103] | ≥ 80% |
| CCCCSc1cccc(Nc2ncc(Br)c(NC3CC3)n2)c1 [Example 105] | ≥ 80% |
| CCCCSc1cccc(Nc2ncc(C(F)(F)F)c(NC3CC3)n2)c1 [Example 107] | ≥ 80% |
| CCCC[S+]([O-])c1cccc(Nc2ncc(Br)c(NC3CC3)n2)c1 (stereo not drawn) [Example 126] | ≥ 80% |
| COCCCSc1cccc(Nc2ncc(Cl)c(NC3CC3)n2)c1 [Example 201] | ≥ 80% |

System: not listed separately
Experiment: logP by LC-MS on reversed-phase columns (C 18), method [c], neutral range pH 7.8
Format: physicochemical
Details: pH 7.8
Protocol: (§1) The logP values were determined in accordance with EEC Directive 79/831 Annex V.A8 by HPLC (High Performance Liquid Chromatography) on reversed-phase columns (C 18), using the methods below:
[c] The LC-MS determination in the neutral range is carried out at pH 7.8 using the mobile phases 0.001 molar aqueous ammonium bicarbonate solution and acetonitrile, linear gradient from 10% acetonitrile to 95% acetonitrile.

| SMILES | chromatographic logP |
| --- | --- |
| COCCOc1ccc(Nc2ncc(C(F)(F)F)c(NC3CC3)n2)cc1 [Example 82] | 3.06 |
| CCNc1nc(Nc2cccc(COC)c2)ncc1Cl [Example 95] | 2.84 |
| CCC[S+]([O-])c1cccc(Nc2ncc(Br)c(NC3CC3)n2)c1 (stereo not drawn) [Example 102] | 2.5 |
| CCCS(=O)(=O)c1cccc(Nc2ncc(Cl)c(NC3CCC3)n2)c1 [Example 103] | 3.27 |
| CCCCSc1cccc(Nc2ncc(Br)c(NC3CC3)n2)c1 [Example 105] | 4.99 |
| CCCC[S+]([O-])c1cccc(Nc2ncc(Br)c(NC3CC3)n2)c1 (stereo not drawn) [Example 126] | 2.86 |
| COCCCSc1cccc(Nc2ncc(Cl)c(NC3CC3)n2)c1 [Example 201] | 3.77 |

System: Venturia inaequalis
Experiment: Venturia test (apple) / protective
Format: in vivo
Details: 240 h, active compound concentration 100 ppm, evaluation 10 days after inoculation, read-out: efficacy
Protocol: After the spray coating has dried on, the plants are inoculated with an aqueous conidia suspension of the apple scab pathogen Venturia inaequalis and then remain for 1 day in an incubation cabinet at about 20° C. and 100% relative atmospheric humidity.

| SMILES | pest or weed control at 100 ppm |
| --- | --- |
| COCc1cccc(Nc2ncc(Cl)c(NC(C)C)n2)c1 [Example 26] | ≥ 70% |
| COCCOc1cccc(Nc2ncc(Cl)c(NC3CCC3)n2)c1 [Example 66] | ≥ 70% |

System: not listed separately
Experiment: logP by LC-MS on reversed-phase columns (C 18), method [b], acidic range pH 2.7
Format: physicochemical
Details: pH 2.7, log p
Protocol: as §1
[b] The LC-MS determination in the acidic range is carried out at pH 2.7 using the mobile phases 0.1% aqueous formic acid and acetonitrile (contains 0.1% formic acid), linear gradient from 10% acetonitrile to 95% acetonitrile.

| SMILES | chromatographic logP |
| --- | --- |
| COCc1cccc(Nc2ncc(Cl)c(NC3CCCC3)n2)c1 [Example 7] | 2.23 |
| COCc1cccc(Nc2ncc(Cl)c(NC(C)C)n2)c1 [Example 26] | 1.76 |
| COCCOc1cccc(Nc2ncc(Cl)c(NC3CCC3)n2)c1 [Example 66] | 2.12 |
| COCc1cccc(Nc2ncc(Br)c(NC(C)C)n2)c1 [Example 70] | 1.92 |
| COCCOc1cccc(Nc2ncc(C(F)(F)F)c(NC3CCC3)n2)c1 [Example 71] | 3.33 |
| COCCOc1ccc(Nc2ncc(C(F)(F)F)c(NC3CC3)n2)cc1 [Example 82] | 2.3 |
| CCNc1nc(Nc2cccc(COC)c2)ncc1Cl [Example 95] | 1.47 |
| CCC[S+]([O-])c1cccc(Nc2ncc(Br)c(NC3CC3)n2)c1 (stereo not drawn) [Example 102] | 1.04 |
| CCCS(=O)(=O)c1cccc(Nc2ncc(Cl)c(NC3CCC3)n2)c1 [Example 103] | 2.6 |
| CCCCSc1cccc(Nc2ncc(Br)c(NC3CC3)n2)c1 [Example 105] | 4 |
| CCCCSc1cccc(Nc2ncc(C(F)(F)F)c(NC3CC3)n2)c1 [Example 107] | 4.94 |
| CCC1CC1Nc1nc(Nc2cccc(COC)c2)ncc1Cl (stereo not drawn) [Example 108] | 2.46 |
| CCCC[S+]([O-])c1cccc(Nc2ncc(Br)c(NC3CC3)n2)c1 (stereo not drawn) [Example 126] | 2.28 |
| COCCCSc1cccc(Nc2ncc(Cl)c(NC3CC3)n2)c1 [Example 201] | 2.59 |

System: Pyrenophora teres
Experiment: Pyrenophora teres test (barley) / protective
Format: in vivo
Details: 192 h, active compound concentration 500 ppm, evaluation 8 days after inoculation, read-out: efficacy
Protocol: After the spray coating has dried on, the plants are sprayed with a spore suspension of Pyrenophora teres. The plants remain in an incubation cabinet for 48 hours at 20° C. and 100% relative atmospheric humidity.

| SMILES | pest or weed control at 500 ppm |
| --- | --- |
| COCCOc1cccc(Nc2ncc(Cl)c(NC3CCC3)n2)c1 [Example 66] | ≥ 70% |
| COCCOc1ccc(Nc2ncc(C(F)(F)F)c(NC3CC3)n2)cc1 [Example 82] | ≥ 70% |
| CCC[S+]([O-])c1cccc(Nc2ncc(Br)c(NC3CC3)n2)c1 (stereo not drawn) [Example 102] | ≥ 70% |
| CCCC[S+]([O-])c1cccc(Nc2ncc(Br)c(NC3CC3)n2)c1 (stereo not drawn) [Example 126] | ≥ 70% |

System: Leptosphaeria nodorum
Experiment: Leptosphaeria nodorum test (wheat) / protective
Format: in vivo
Details: Parastagonospora nodorum, active compound concentration 500 ppm, evaluation 7-9 days after inoculation, read-out: efficacy
Protocol: Thereafter, the plants are placed in a greenhouse at 90% relative atmospheric humidity and a temperature of 22° C.

| SMILES | pest or weed control at 500 ppm |
| --- | --- |
| COCc1cccc(Nc2ncc(Cl)c(NC3CCCC3)n2)c1 [Example 7] | ≥ 70% |
| COCc1cccc(Nc2ncc(Cl)c(NC(C)C)n2)c1 [Example 26] | ≥ 70% |
| COCCOc1cccc(Nc2ncc(Cl)c(NC3CCC3)n2)c1 [Example 66] | ≥ 70% |
| COCc1cccc(Nc2ncc(Br)c(NC(C)C)n2)c1 [Example 70] | ≥ 70% |
| COCCOc1cccc(Nc2ncc(C(F)(F)F)c(NC3CCC3)n2)c1 [Example 71] | ≥ 70% |
| COCCOc1ccc(Nc2ncc(C(F)(F)F)c(NC3CC3)n2)cc1 [Example 82] | ≥ 70% |
| CCNc1nc(Nc2cccc(COC)c2)ncc1Cl [Example 95] | ≥ 70% |
| CCC[S+]([O-])c1cccc(Nc2ncc(Br)c(NC3CC3)n2)c1 (stereo not drawn) [Example 102] | ≥ 70% |
| CCCS(=O)(=O)c1cccc(Nc2ncc(Cl)c(NC3CCC3)n2)c1 [Example 103] | ≥ 70% |
| CCCCSc1cccc(Nc2ncc(Br)c(NC3CC3)n2)c1 [Example 105] | ≥ 70% |
| CCCCSc1cccc(Nc2ncc(C(F)(F)F)c(NC3CC3)n2)c1 [Example 107] | ≥ 70% |
| CCC1CC1Nc1nc(Nc2cccc(COC)c2)ncc1Cl (stereo not drawn) [Example 108] | ≥ 70% |
| CCCC[S+]([O-])c1cccc(Nc2ncc(Br)c(NC3CC3)n2)c1 (stereo not drawn) [Example 126] | ≥ 70% |
| COCCCSc1cccc(Nc2ncc(Cl)c(NC3CC3)n2)c1 [Example 201] | ≥ 70% |

System: Cochliobolus miyabeanus
Experiment: Cochliobolus test (rice) / protective
Details: Bipolaris oryzae, in Oryza sativa, 96 h, read-out: efficacy
Protocol: Cochliobolus Test (Rice)/Protective • Solvent: 28.5 parts by weight of acetone • Emulsifier: 1.5 parts by weight of alkylaryl polyglycol ether
1 day after the treatment, the plants are inoculated with an aqueous spore suspension of Cochliobolus miyabeanus. The plants are then placed in a greenhouse at 100% relative atmospheric humidity and 25° C.
Evaluation is carried out 4 days after the inoculation.

| SMILES | pest or weed control at 250 ppm |
| --- | --- |
| COCc1cccc(Nc2ncc(Cl)c(NC3CCCC3)n2)c1 [Example 7] | ≥ 80% |
| COCc1cccc(Nc2ncc(Cl)c(NC(C)C)n2)c1 [Example 26] | ≥ 80% |
| COCc1cccc(Nc2ncc(Br)c(NC(C)C)n2)c1 [Example 70] | ≥ 80% |
| COCCOc1cccc(Nc2ncc(C(F)(F)F)c(NC3CCC3)n2)c1 [Example 71] | ≥ 80% |
| COCCOc1ccc(Nc2ncc(C(F)(F)F)c(NC3CC3)n2)cc1 [Example 82] | ≥ 80% |
| CCNc1nc(Nc2cccc(COC)c2)ncc1Cl [Example 95] | ≥ 80% |
| CCC[S+]([O-])c1cccc(Nc2ncc(Br)c(NC3CC3)n2)c1 (stereo not drawn) [Example 102] | ≥ 80% |
| CCCS(=O)(=O)c1cccc(Nc2ncc(Cl)c(NC3CCC3)n2)c1 [Example 103] | ≥ 80% |
| CCCCSc1cccc(Nc2ncc(Br)c(NC3CC3)n2)c1 [Example 105] | ≥ 80% |
| CCCCSc1cccc(Nc2ncc(C(F)(F)F)c(NC3CC3)n2)c1 [Example 107] | ≥ 80% |
| CCC1CC1Nc1nc(Nc2cccc(COC)c2)ncc1Cl (stereo not drawn) [Example 108] | ≥ 80% |
| CCCC[S+]([O-])c1cccc(Nc2ncc(Br)c(NC3CC3)n2)c1 (stereo not drawn) [Example 126] | ≥ 80% |
| COCCCSc1cccc(Nc2ncc(Cl)c(NC3CC3)n2)c1 [Example 201] | ≥ 80% |

— patent US20110245284A1, “Alkoxy- and Alkylthio-Substituted Anilinopyrimidines” (Bayer CropScience AG, priority 2008, published 2011)
